Experimental data published in patent US4044043A, “Derivatives of 9-oxo-13-trans-prostenoic acid esters” (American Cyanamid Company, priority 1975, dated 1977).
≈ marks a conversion by molar mass, not a printed value. Read-outs that look alike come from different tables or passages of the source.

Key:
[1] = tested on: diastolic blood pressure; test: Prostaglandin-like hypotensive activity in anesthetized rats (minimal dose for about 10 mm. decrease in diastolic blood pressure); assay type: in vivo, Male Wistar strain rats; conditions: Rattus norvegicus; intravenous; decrease of about 10 mm. in diastolic blood pressure
Protocol: This procedure is a modification of the technique described by Pike et al., Prostaglandins, Nobel Symposium 2, Stockholm, June, 1966; p, 165.
Male Wistar strain rats (Royal Hart Farms) averaging approximately 250 grams in weight were fastened to rat boards in a supine position by means of canvas vests and limb ties. The femoral area was infiltrated subcutaneously with lidocaine and the iliac artery and vein exposed and cannulated. Arterial blood pressure (systolic/diastolic) was recorded using a Statham P23 Db pressure transducer-Offner dynograph system. To obtain a stable blood pressure, the animals were anesthetized before use with pentobarbital, 30 mg./kg. of body weight intravenously, and also were given hexamethonium bitartrate, 2 mg./kg. of body weight intravenously. The test compounds were prepared by ultrasonic dispersion in a saline-Tween 80 ® vehicle. A constant intravenous dose volume of 0.5 ml. was administered and test doses ranged from 0.1 to 10.0 mg./kg. of body weight. Increasing or decreasing doses were selected depending on the dose response obtained. In Table I below are set forth the minimal doses required to produce a decrease of about 10 mm. in diastolic blood pressure for typical compounds of the present invention.

[2] = tested on: Mycobacterium smegmatis ATCC 606; test: agar-dilution streak-plate antimicrobial assay; assay type: cell-based; conditions: Mycolicibacterium smegmatis, ATCC606, read-out: Minimal inhibitory conc. (6)
Protocol: (§1) The novel compounds of the present invention are also useful as antimicrobial agents. […] In this assay, the compounds to be tested are made up to contain 2.5 mg. of test compound per milliliter of solution. Observing sterile techniques, two-fold serial dilution are made of each test solution. One milliliter of each of the original solutions and of each of the serial dilutions is then added to 9 ml. of warm sterile nutrient agar capable of supporting growth of the bacterial test cultures. A second set of agar dilutions is prepared identical to the first except that the nutrient agar is designed to support the growth of the fungal test cultures. […] The test bacteria and yeast-like fungi are prepared for use by growing in broth overnight. The spores of the filamentous fungi are harvested from mature agar slant cultures and are suspended in sterile physiological saline solution. A loopful of each of the resulting live suspensions is then, still employing sterile techniques, streaked upon the surfaces of each of the agar plates and the resulting streaked plates are then incubated. After an appropriate period of time, each of the streaks on each of the plates is inspected visually and the extent, if any, of bacterial or fungal growth is noted. The minimal inhibitory concentration (expressed in micrograms per milliliter) is defined as the concentration of test compound causing complete inhibition of growth of any particular organism. In a representative operation, and merely by way of illustration, the minimal inhibitory concentration of typical compounds of the present invention against a variety of test organisms as determined in the above-described assay are set forth in Tables II and III below: […]

[3] = tested on: Trichophyton tonsurans NIH 662; test: agar-dilution streak-plate antimicrobial assay; assay type: cell-based; conditions: NIH662, read-out: Minimal inhibitory conc. (3)
Protocol: as §1

[4] = tested on: gastric acid secretion; test: Inhibition of Gastric Acid Secretion (Pylorous-Ligated Rat), Shay rat procedure; assay type: in vivo, rats (male, CFE strain); conditions: read-out: % Inhibition of Control Gastric Acid Secretion; for inhibition in vivo at 100 mg/kg: 100 mg./kg. intraduodenal
Description: The novel compounds of the present invention are also effective inhibitors of gastric acid secretion and of ulcer development in experimental animals, and thus are potentially valuable as agents for the control of gastric acid secretion and of gastric erosion and as anti-ulcer agents. Gastric acid secretion inhibitory action is usually measured by the Shay rat procedure ^(1,2) with some modifications as follows. 6 1. Shay et al., Gastroenterology, 5, 43 (1945). 6 2. Shay et al., Gastroenterology, 26, 906 (1954).
The rats (male, CFE strain) were starved for 48 hours (water was given ad libitum) to permit evacuation of stomach contents. On the morning of the experiment, under ether anesthesia, the abdominal region was shaved and a midline incision (1-1 1/2 inch) was made with a scalpel. With the help of a closed curved hemostat the duodenum was picked up. Upon getting the duodenum into view fingers were used to pull the stomach through the opening, the stomach was then gently manipulated with fingers to rid stomach of air and residual matter which were pushed through the pylorus. Two 5-inch sutures were drawn under the pyloric-duodenal puncture. A ligature, at the juncture, was formed with one of the threads. The second ligature was also formed but not tightened.
The test compound or the vehicle, usually 1 ml./100 g. body weight, were injected into the duodenum as close as possible to the first ligature. After injection the second ligature was tightened below the injection site to minimize leakage. The stomach was placed back through the opening into the abdominal cavity, the area of incision was washed with saline and the incision was closed with autoclips. (Ocasionally instead of an intraduodenal injection, animals were dosed by the oral or subcutaneous route. In the latter case, dosing was done thirty to sixty minutes before the operation).
The abdominal cavity was exposed by cutting with scissors and the esophagus close to the stomach was clamped off with a hemostat, the stomach was removed by cutting above the hemostat (the esophagus was cut) and between the two sutures. Extraneous tissue was removed, the stomach washed with saline and blotted on gauze. A slit was carefully made in the stomach which was held over a funnel and the contents were collected in a centrifuge tube. The stomach was further cut along the outside edge and turned inside out. Two ml. of water were used to wash the stomach contents into the respective centrifuge tube. The combined stomach contents and wash were then centrifuged out for 10 minutes in the International Size 2 Centrifuge (setting at 30). The supernatant was collected, volume measured and recorded, 2 drops of phenolphthalein indicator (1% in 95% ethanol) were added and the solution was titrated with 0.02N NaOH (or with 0.04N NaOH when large volumes of stomach contents were encountered) to pH 8.4 (because of usual coloring of the stomach contents, phenolphthalein was only used to permit visual indication that the end point was near) and the amount of acid present was calculated.
Compounds inducing inhibition of gastric acid secretion of 20% or more were considered active. In a representative operation, and merely by way of illustration, the results obtained with this assay with typical compounds of the present invention are given in Table IIIA.

[5] = tested on: bronchospasms elicited by 5-hydroxytryptamine; test: Bronchodilator Activity (Konzett Assay) against 5-hydroxytryptamine; assay type: in vivo, guinea pigs; conditions: Cavia porcellus; three logarithmic cumulative intravenous doses
Protocol: (§2) Bronchodilator activity was determined in guinea pigs against bronchospasms elicited by intravenous injections of 5-hydroxytryptamine, histamine or acetylcholine by the Konzett procedure. [See J. Lulling, P. Lievens, F. El Sayed and J. Prignot, Arzeneimittel-Forschung, 18, 995 (1968)]. In Table IIIC which follows bronchodilator activity for representative compounds of this invention against one or more of the three spasmogenic agents is expressed as an ED50 determined from the results obtained with three logarithmic cumulative intravenous doses.

[6] = tested on: bronchospasms elicited by histamine; test: Bronchodilator Activity (Konzett Assay) against histamine; assay type: in vivo, guinea pigs; conditions: Cavia porcellus; three logarithmic cumulative intravenous doses
Protocol: as §2

[7] = tested on: bronchospasms elicited by acetylcholine; test: Bronchodilator Activity (Konzett Assay) against acetylcholine; assay type: in vivo, guinea pigs; conditions: Cavia porcellus; three logarithmic cumulative intravenous doses
Protocol: as §2

[8] = tested on: dl-PGE1-induced contraction of gerbil colon; test: Inhibition of dl-PGE1-Induced Contraction of Gerbil Colon (prostaglandin antagonist action); assay type: cell-based, gerbils (Meriones unguiculatus); conditions: Meriones unguiculatus, 1 min
Protocol: The compounds of this invention are also useful as antagonists of prostaglandin action and accordingly they are potentially useful as anti-inflammatory agents, and as agents for the treatment of periodontal diseases and diarrhea. Testing for prostaglandin antagonist action is carried out in the following manner. Sections of ascending colon, approximately 20 mm. long, from mature male gerbils (Meriones unguiculatus) weighing 70-80 g. were mounted in De Jalon's solution (154 mM NaCl; 5.95 mM NAHCO3; […], 5.64 mM KC and .27 mM CaCl2 in 20 ml. tissue baths) (L and K Glass Co., Lynnhurst, N.J.). The medium was continually gassed with a mixture of 95% 02 -5% CO2 and maintained at 37° C. The tissues were suspended via silk suture threads between a glass hook at the base and a model FT .03C force displacement transducer (Grass Instruments, Quincy, Massachusetts). Contractions were recorded on a Poly-Viso ® polygraph (Sanborn Co., Cambridge, Massachusetts). After mounting, tissues were allowed to stabilize 15-20 minutes during which time adjustments were made to establish and maintain a 0.5 g. resting tension on the muscle. Thereafter, test cycles of 3-5 minutes were begun and consisted of a 1 minute exposure to the potential antagonist, if called for, followed by a 1 minute exposure to the prostaglandin agonist, a 15-30 sec. washout and a recovery period of 2-2.5 minutes. […] During the washout period, the tissue was rinsed with a measured amount equalling 8 volumes of medium. Muscle relaxation was virtually complete by the end of the washout period. During preliminary tests it was noted that a final concentration of 200 ng./ml. of a racemic mixture of synthetic prostaglandin-E1 (dl-PGE1) produced maximal muscle contraction. Following stabilization, muscles were exposed 2 to 3 times to this concentration of dl-PGE1 until a consistent response was recorded. Once maximal responses were established, test cycles with potential antagonists were commenced and were followed alternately with prostaglandin-only test cycle. […] The contraction of the muscle induced by 200 ng./ml. dl-PGE1 following exposure to a given concentration of the potential antagonist was always compared to the response of the tissue to that level of dl PGE1 in the immediately preceding cycle. Using a series of potential antagonist concentrations, an approximate ID50 (concentration at which 50% inhibition was observed) was established. The compounds were also tested against a sub-maximal prostaglandin challenge (20 ng./ml. dl-PGE1) in which case activity is reported in terms of a 50% inhibition of maximum response.

[9] = tested on: gastric acid secretion; test: Inhibition of basal Gastric Acid Secretion (Acute Gastric Fistula Rat); assay type: in vivo, Female Sprague-Dawley rats; conditions: 2 h, 10 mg./kg. intraduodenal, B: 120 minute collection
Protocol: Inhibition of basal gastric acid secretion was determined in the acute gastric fistula rat as follows. Female Sprague-Dawley rats (Charles River Laboratories) weighing 140-160 grams are fasted in individual cages for 18-24 hours. The rats are then lightly anesthetized with ether and their front teeth extracted to avoid destruction of the plastic cannula. A midline incision is then made and the stomach and duodenum exposed. A flanged polyvinyl tube is inserted into the fundic portion of the stomach and secured with a purse string suture line using 4-0 Mersilene. The rat is then dosed by injection of the compound into the duodenum (1.0 ml. per 100 gram body weight). After dosing, the abdominal wall and skin are closed using metal wound clips. The rat is replaced in a cage containing a longitudinal slit to allow the polyvinyl tube to hang freely. An 8 ml. plastic collecting tube is attached to the flanged cannula and hangs freely below the cage. The first 30 minute sample is discarded designating this time as zero. The collecting tube is attached again and samples removed at the end of 60 and 120 minutes. Those samples are referred to as "A" and "B" in the table. The hourly samples are then transferred to a 15 ml. centrifuge tube and centrifuged for 5-10 minutes. Total and sediment volume are then recorded with the supernatant volume being used as volume of secretion. A 1 ml. or less aliquot is then removed and placed in a 50 ml. beaker containing 10 ml. of distilled water. This sample is then titrated using 0.01N NaOH to pH 7.0 using a Beckman zeromatic pH meter. Volume, titratable acidity (meq/L) and total acid output (μ eq/hour) are recorded. Percent inhibition is determined by comparison with the appropriate control. Groups of three rats were used. All compounds are administered in vehicle (0.5% methocel, 0.4% Tween 80, saline) at a constant volume of 1 ml./100 gram rat. Samples were sonicated with care to prevent overheating.

[10] = sub-maximal challenge, 20 ng./ml. dl-PGE1, 50% inhibition of maximum response, read-out: ID50 vs. 20 ng. of PGE1/ml.
[11] = read-out: % Inhibition Total Acid Output
[12] = read-out: % Inhibition Total Acidity
[13] = 200 ng./ml. dl-PGE1, read-out: ID50 vs. 200 ng. of PGE1/ml.

SMILES	inhibition in vivo at 100 mg/kg [4]	ED50 [5]	ED50 [6]	ED50 [7]	IC50 [8, 10]	IC50 [8, 13]	other results
CCCCCCCCCC/C=C/[C@H]1CCC(=O)[C@@H]1CCCCCCC(=O)OCC (relative stereo) [ethyl 20-butyl-9-oxo-13-trans-prostenoate]	–	–	–	–	–	–	minimal effective dose [1]: 10 mg/kg; MIC [2]: 250 µg/mL (≈ 615 µM); MIC [3]: 250 µg/mL (≈ 615 µM)
CCCCCC/C=C/[C@@H]1CCC(=NO)[C@H]1CCCCCCC(=O)O (relative stereo) [9-oxo-13-trans-prostenoic acid 9-oxime, 9-Oxo-13-trans-prostenoic acid oxime]	39%	30 mg/kg	23.1 mg/kg	12.5 mg/kg	1 to 2 µg/mL (≈ 2.96 to 5.93 µM)	–	–
CCCCCC/C=C/[C@H]1CCC(=NOC)[C@@H]1CCCCCCC(=O)OCC (relative stereo) [ethyl 9-oxo-13-trans-prostenoate 9-methoxime]	–	–	–	–	–	–	inhibition in vivo at 10 mg/kg [9, 11]: 66%; inhibition in vivo at 10 mg/kg [9, 12]: 45%
CCCCCC/C=C/[C@@H]1CCC(=O)[C@H]1CCCCOCC(=O)O (relative stereo) [9-oxo-3-oxa-13-trans-prostenoic acid]	90%	0.895 mg/kg	0.67 mg/kg	5.24 mg/kg	–	20 µg/mL (≈ 61.6 µM)	–
CCCCCC/C=C/[C@@H]1CCC(=O)[C@H]1CCCCC(C)(C)CC(=O)O (relative stereo) [3,3-dimethyl-9-oxo-13-trans-prostenoic acid]	–	12 mg/kg	5.1 mg/kg	> 10 mg/kg	1 µg/mL (≈ 2.85 µM)	3 to 5 µg/mL (≈ 8.56 to 14.3 µM)	inhibition in vivo at 200 mg/kg ([4]; 200 mg./kg. intraduodenal): 72%
CCCC=CC1CCC(=O)C1CCCCCC(F)C(=O)O (stereo not drawn) [9-oxo-2-fluoro-18,19,20-trinor-13-trans-prostenoic acid]	–	8.36 mg/kg	6.35 mg/kg	> 10 mg/kg	–	25 to 30 µg/mL (≈ 83.8 to 101 µM)	–
CCCCCC/C=C/[C@@H]1CCC(=O)[C@H]1CCCCC(C)(C)CC(=O)OCC (relative stereo) [ethyl 9-oxo-3,3-dimethyl-13-trans-prostenoate]	–	–	–	–	–	–	inhibition in vivo at 10 mg/kg [9, 11]: 59%; inhibition in vivo at 10 mg/kg [9, 12]: 18%
CCCC/C=C/[C@H]1CCC(=O)[C@@H]1CCCCCCC(=O)O (relative stereo) [9-oxo-19,20-dinor-13-trans-prostenoic acid]	77%	2.16 mg/kg	0.715 mg/kg	5.28 mg/kg	1 to 2 µg/mL (≈ 3.4 to 6.79 µM)	–	inhibition in vivo at 50 mg/kg ([4]; 50 mg./kg. intraduodenal): 37%
